Values after ≈ are worked out from the molar mass of the structure shown. Residues, ends and D or L forms follow the SMILES beside them.
Tests used:
[1] = system: S. aureus 3108(R) (MRSA 3108); format: cell-based, Staphylococcus aureus; conditions: multidrug-resistant strain; 1% peptone media, 16 h at 37 °C
[2] = system: human red blood cells (hRBCs); experiment: Haemolytic activity; format: cell-based; conditions: red cells of human, 1 h
Experimental: Peptide-induced lysis of human red blood cells (hRBCs) was determined as follows. Fresh hRBCs were washed 2–3 times with phosphate-buffered saline (PBS) by centrifugation for 5 min at 2500 rpm at 4 °C. Peptides in PBS were incubated with 4% (v/v) hRBCs for 1 h at 37 °C. Samples were then centrifuged for 5 min at 1000 × g. The absorbance of the supernatant at 405 nm was used as a measure of haemolysis. As a positive control, 100% haemolysis was obtained by treating hRBCs with 0.1% Triton X-100.

[3] = system: Acinetobacter baumannii CCARM 12035 (MDRAB 12035); format: cell-based; conditions: multidrug-resistant strain; 1% peptone media, 16 h at 37 °C
From the text: (§1) Four Gram-negative bacteria species (Escherichia coli KCTC 1682, Acinetobacter baumannii KCTC 2508, Pseudomonas aeruginosa KCTC 1637 and Salmonella typhimurium KCTC 1926) and three Gram-positive bacteria species (Staphylococcus aureus KCTC 1621, Bacillus subtilis KCTC 3028 and Staphylococcus epidermidis KCTC 1917) were procured from the Korean Collection for Type Cultures (KCTC). Multi-drug-resistant Gram-negative bacteria (Salmonella typhimurium CCARM 8003 and 8007, Escherichia coli CCARM 1229 and 1238, Pseudomonas aeruginosa CCARM 2002 and 2095 and Acinetobacter baumannii CCARM 12035 and 12036) were obtained from the Culture Collection of Antibiotic-Resistant Microbes (CCARM). To determine MICs, bacteria were cultured in Luria-Bertani (LB) medium for overnight at 37 °C. An aliquot of the culture was incubated in 1% peptone media at 37 °C until mid-log phase. 100 μl of serial 2-fold diluted peptides were treated in 96 well plates and added to 100 μl of 2 × 10^6 CFU/ml bacterial suspensions in 1% peptone media for 16 h at 37 °C.

[4] = system: Salmonella typhimurium CCARM 8003 (MDRST 8003); format: cell-based; conditions: multidrug-resistant strain; 1% peptone media, 16 h at 37 °C
From the text: as §1

[5] = system: Bacillus subtilis KCTC 3028; format: cell-based; conditions: KCTC 3028, 16 h
From the text: as §1

[6] = system: Pseudomonas aeruginosa CCARM 2095 (MDRPA 2095); format: cell-based; conditions: multidrug-resistant strain; 1% peptone media, 16 h at 37 °C
From the text: as §1

[7] = system: Escherichia coli CCARM 1229 (MDREC 1229); format: cell-based; conditions: multidrug-resistant strain; 1% peptone media, 16 h at 37 °C
From the text: as §1

[8] = system: Escherichia coli CCARM 1238 (MDREC 1238); format: cell-based; conditions: multidrug-resistant strain; 1% peptone media, 16 h at 37 °C
From the text: as §1

[9] = system: Pseudomonas aeruginosa KCTC 1637; format: cell-based; conditions: KCTC 1637, 16 h
From the text: as §1

[10] = system: Salmonella typhimurium CCARM 8007 (MDRST 8007); format: cell-based; conditions: multidrug-resistant strain; 1% peptone media, 16 h at 37 °C
From the text: as §1

[11] = system: Pseudomonas aeruginosa CCARM 2002 (MDRPA 2002); format: cell-based; conditions: multidrug-resistant strain; 1% peptone media, 16 h at 37 °C
From the text: as §1

[12] = system: Acinetobacter baumannii CCARM 12036 (MDRAB 12036); format: cell-based; conditions: multidrug-resistant strain; 1% peptone media, 16 h at 37 °C
From the text: as §1

[13] = system: Staphylococcus aureus KCTC 1621; format: cell-based; conditions: KCTC 1621, 16 h
From the text: as §1

[14] = system: Gram-negative bacteria (E. coli, A. baumannii, P. aeruginosa, S. typhimurium); format: cell-based; conditions: 16 h
From the text: as §1

[15] = system: Gram-positive bacteria (S. aureus, B. subtilis, S. epidermidis); format: cell-based; conditions: 16 h
From the text: as §1

[16] = system: Acinetobacter baumannii KCTC 2508; format: cell-based; conditions: KCTC 2508, 16 h
From the text: as §1

[17] = system: Escherichia coli KCTC 1682; format: cell-based; conditions: KCTC 1682, 16 h
From the text: as §1

[18] = system: Staphylococcus epidermidis KCTC 1917; format: cell-based; conditions: KCTC 1917, 16 h
From the text: as §1

[19] = system: Salmonella typhimurium KCTC 1926; format: cell-based; conditions: KCTC 1926, 16 h
From the text: as §1

[20] = system: S. aureus 3126(R) (MRSA 3126); format: cell-based, Staphylococcus aureus; conditions: multidrug-resistant strain; 1% peptone media, 16 h at 37 °C
[21] = system: S. aureus 3089(R) (MRSA 3089); format: cell-based, Staphylococcus aureus; conditions: multidrug-resistant strain; 1% peptone media, 16 h at 37 °C

Row | SMILES | MIC, MRSA 3108 [1] [µM] | MHC (minimal peptide concentration that produces haemolysis) [2] [µM] | MIC, MDRAB 12035 [3] [µM] | MIC, MDRST 8003 [4] [µM] | MIC, B. subtilis [5] [µM] | MIC, MDRPA 2095 [6] [µM] | MIC, MDREC 1229 [7] [µM] | MIC, MDREC 1238 [8] [µM] | MIC, P. aeruginosa [9] [µM] | MIC, MDRST 8007 [10] [µM] | MIC, MDRPA 2002 [11] [µM] | MIC, MDRAB 12036 [12] [µM] | MIC, S. aureus [13] [µM] | Average MIC, Gram-negative [14] [µM] | Average MIC, Gram-positive [15] [µM] | MIC, A. baumannii [16] [µM] | MIC, E. coli [17] [µM] | MIC, S. epidermidis [18] [µM] | MIC, S. typhimurium [19] [µM] | MIC, MRSA 3126 [20] [µM] | further results
1 | CC[C@H](C)[C@H](NC(=O)CNC(=O)[C@H](CCC(N)=O)NC(=O)[C@H](Cc1ccccc1)NC(=O)[C@@H](NC(=O)[C@H](CCCCN)NC(=O)[C@H](CCCCN)NC(=O)[C@H](CC(C)C)NC(=O)[C@H](C)NC(=O)[C@H](CC(N)=O)NC(=O)[C@H](CC(C)C)NC(=O)CN)C(C)C)C(=O)N[C@@H](Cc1c[nH]cn1)C(=O)N[C@@H](CCC(=O)O)C(=O)N[C@@H](C)C(=O)N[C@H](C(=O)N[C@@H](CCCCN)C(=O)N[C@@H](CCCCN)C(=O)N[C@H](C(=O)N[C@@H](CC(N)=O)C(=O)N[C@@H](CC(N)=O)C(=O)N[C@@H](Cc1c[nH]cn1)C(=O)N[C@H](C(=O)N[C@@H](CCC(N)=O)C(=O)O)C(C)C)[C@@H](C)CC)[C@@H](C)CC [Ps-K18] (H-GLNALKKVFQGIHEAIKKINNHVQ-OH) | 32 (≈ 86.4 µg/mL) | 100 | 4 (≈ 10.8 µg/mL) | 4 (≈ 10.8 µg/mL) | 8 (≈ 21.6 µg/mL) | 2 (≈ 5.4 µg/mL) | 4 (≈ 10.8 µg/mL) | 2 (≈ 5.4 µg/mL) | 2 (≈ 5.4 µg/mL) | 4 (≈ 10.8 µg/mL) | 2 (≈ 5.4 µg/mL) | 4 (≈ 10.8 µg/mL) | 16 (≈ 43.2 µg/mL) | 2.5 | 10.67 | 2 (≈ 5.4 µg/mL) | 2 (≈ 5.4 µg/mL) | 8 (≈ 21.6 µg/mL) | 4 (≈ 10.8 µg/mL) | 16 (≈ 43.2 µg/mL) | haemolysis at 100 μM [2]; 100: 0.5%; MIC, MRSA 3089 [21]: 16 µM (≈ 43.2 µg/mL)
2 | CC[C@H](C)[C@H](NC(=O)[C@H](C)NC(=O)[C@H](CCC(=O)O)NC(=O)[C@H](Cc1c[nH]cn1)NC(=O)[C@@H](NC(=O)[C@@H]1CCCN1C(=O)[C@H](CCC(N)=O)NC(=O)[C@H](Cc1ccccc1)NC(=O)[C@@H](NC(=O)[C@H](CCCCN)NC(=O)[C@H](CCCCN)NC(=O)[C@H](CC(C)C)NC(=O)[C@H](C)NC(=O)[C@H](CC(N)=O)NC(=O)[C@H](CC(C)C)NC(=O)CN)C(C)C)[C@@H](C)CC)C(=O)N[C@@H](CCCCN)C(=O)N[C@@H](CC(C)C)C(=O)N[C@H](C(=O)N[C@@H](CC(N)=O)C(=O)N[C@@H](CC(N)=O)C(=O)N[C@@H](Cc1c[nH]cn1)C(=O)N[C@H](C(=O)N[C@@H](CCC(N)=O)C(=O)O)C(C)C)[C@@H](C)CC [Ps-P] (H-GLNALKKVFQPIHEAIKLINNHVQ-OH) | 32 (≈ 87.2 µg/mL) | 400 | 8 (≈ 21.8 µg/mL) | 16 (≈ 43.6 µg/mL) | 32 (≈ 87.2 µg/mL) | 16 (≈ 43.6 µg/mL) | 8 (≈ 21.8 µg/mL) | 8 (≈ 21.8 µg/mL) | 16 (≈ 43.6 µg/mL) | 8 (≈ 21.8 µg/mL) | 16 (≈ 43.6 µg/mL) | 8 (≈ 21.8 µg/mL) | 32 (≈ 87.2 µg/mL) | 10 | 32 | 8 (≈ 21.8 µg/mL) | 8 (≈ 21.8 µg/mL) | 32 (≈ 87.2 µg/mL) | 8 (≈ 21.8 µg/mL) | 32 (≈ 87.2 µg/mL) | haemolysis at 400 μM [2]; 400: 0.5%; MIC, MRSA 3089 [21]: 32 µM (≈ 87.2 µg/mL)

— publication PMC5431190, “Investigation of cationicity and structure of pseudin-2 analogues for enhanced bacterial selectivity and anti-inflammatory activity” (Scientific Reports, 2017)
